Legend:
[1] = Half-life in human liver microsomes (HLM); format: in vitro ADME; details: human liver microsomes (HLM, HL101); human liver microsomes 0.78 mg/mL, 1 μM compound, NADPH, pH 7.4, 37° C.
Procedure: Test compounds (1 μM) are incubated with 3.3 mM MgCl2 and 0.78 mg/mL HLM (HL101) in 100 mM potassium phosphate buffer (pH 7.4) at 37° C. on the 96-deep well plate. The reaction mixture is split into two groups, a non-P450 and a P450 group. NADPH is only added to the reaction mixture of the P450 group. An aliquot of samples of P450 group is collected at 0, 10, 30, and 60 min time point, where 0 min time point indicated the time when NADPH is added into the reaction mixture of P450 group. […] Collected aliquots are extracted with acetonitrile solution containing an internal standard. […] The compound concentration in supernatant is measured by LC/MS/MS system.
The half-life value is obtained by plotting the natural logarithm of the peak area ratio of compounds/internal standard versus time. The slope of the line of best fit through the points yields the rate of metabolism (k). This is converted to a half-life value using following equations:

[2] = Pharmacokinetic evaluation following intravenous and oral administration in rats; format: in vivo; details: rat, plasma; male Sprague-Dawley rats; PO 1 to 5 mg/kg vs IV, AUCinf dose-normalized; mean % F
Procedure: Male Sprague-Dawley rats are acclimatized for at least 24 hours prior to experiment initiation. During the acclimation period, all animals receive food and water ad libitum. However, food but not water is removed from the animals' cages at least 12 hours before initiation of the experiment. During the first 3 hours of experimentation, the animals receive only water ad libitum. At least three animals each are tested for intravenous and oral dosage. For intravenous formulation, compounds were dissolved (0.25 to 1 mg/mL) in a mixture of 3% dimethyl sulfoxide, 40% PEG 400 and the rest percentage of 40% Captisol in water (w/v). The animals are weighed before dosing. The determined body weight is used to calculate the dose volume for each animal.
Dose volume (mL/kg)=1 mg/kg/formulation concentration (mg/mL)
In instances where the formulation concentrations were less than 0.5 mg/mL, the dosing volume is about 2 mL/kg.
For oral formulation, compounds of this invention are suspended (0.5 to 0.75 mg/mL) in a mixture of 5% of 10% Tween 80 in water (v/v) and 95% of 0.5% methyl cellulose in water (w/v). PO rats are typically dosed through oral gavage following the same dose volume formula as IV to achieve a dose level of 1 to 5 mg/kg. For IV dosing, blood samples are collected (using a pre-heparinized syringe) via the jugular vein catheter at 2, 5, 15, 30, 60, 120, 180, 300, 480, and 1440 minutes post dosing. For PO dosing, blood samples are collected (using a pre-heparinized syringe) via the jugular vein catheter before dosing and at 5, 15, 30, 60, 120, 180, 300, 480, and 1440 minutes post dosing. About 250 uL of blood is obtained at each time point from the animal. Equal volumes of 0.9% normal saline are replaced to prevent dehydration. The whole blood samples are maintained on ice until centrifugation. Blood samples are then centrifuged at 14,000 rpm for 10 minutes at 4° C. and the upper plasma layer transferred into a clean vial and stored at −80° C. The resulting plasma samples are then analyzed by liquid chromatography-tandem mass spectrometry. Following the measurement of plasma samples and dosing solutions, plasma concentration-time curve is plotted. Plasma exposure is calculated as the area under the concentration-time curve extrapolated to time infinite (AUCinf). The AUCinf is averaged and the oral bioavailability (% F) for individual animal is calculated as:
AUCinf(PO)/AUCinf(IV), normalized to their respective dose levels.
The % F is reported as the mean % F of all animals dosed orally with the compound of the invention at the specified level (Table 4).

[3] = molecular target: T1, P2X7 receptor (IL-1β release from THP-1 cells) (Homo sapiens, UniProt Q99572); assay: IL-1β release assay in differentiated THP-1 cells stimulated with BzATP (Example 9); format: cell-based; details: for inhibition at 0.3 µM: 0.3 μM concentration, BzATP 250 uM, read-out: IL-1β % Inhib. @ 0.3 or 0.1 μM; for IC50: released IL-1β as in Example 9, four parameter logistic fit
T1 construct: host or cells: THP-1 cells differentiated with LPS and IFN-γ
T1 sequence (Q99572 1-595): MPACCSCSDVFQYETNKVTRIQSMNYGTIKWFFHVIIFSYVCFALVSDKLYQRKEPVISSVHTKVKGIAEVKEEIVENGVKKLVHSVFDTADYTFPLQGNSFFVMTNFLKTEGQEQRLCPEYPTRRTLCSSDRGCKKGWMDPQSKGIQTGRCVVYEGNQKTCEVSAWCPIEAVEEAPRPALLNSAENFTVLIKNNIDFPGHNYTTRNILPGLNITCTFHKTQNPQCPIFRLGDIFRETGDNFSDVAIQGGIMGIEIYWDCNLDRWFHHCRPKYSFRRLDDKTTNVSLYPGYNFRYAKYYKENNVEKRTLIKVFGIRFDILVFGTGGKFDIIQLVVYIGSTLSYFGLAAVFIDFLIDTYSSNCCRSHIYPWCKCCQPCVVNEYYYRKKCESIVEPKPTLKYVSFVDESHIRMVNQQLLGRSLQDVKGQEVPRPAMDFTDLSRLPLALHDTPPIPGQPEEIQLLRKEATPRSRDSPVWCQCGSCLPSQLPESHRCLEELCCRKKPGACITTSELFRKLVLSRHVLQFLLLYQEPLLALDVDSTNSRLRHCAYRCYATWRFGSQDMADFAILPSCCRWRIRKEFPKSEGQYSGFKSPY

| half-life at 1 μM [1] [min] | bioavailability [2] [%] | inhibition at 0.3 µM [3] [%] | IC50 [3] [nM] | SMILES |
| --- | --- | --- | --- | --- |
| 37.8 | 0 to 25 | > 76 | 1 | C[C@H](CO)N1CCc2c(NC(=O)CC34CC5CC(CC(C5)C3)C4)cccc2C1=O [Compound 526] |
| 39 | 0 to 25 | 26 to 50 | 4.65 | CC(C)[C@H](C(N)=O)n1ccc2c(NC(=O)CC34CC5CC(C)(CC(C)(C5)C3)C4)cccc2c1=O [Compound 529] |
| 15 | 0 to 25 | > 76 | 12.2 | CC(C(=O)Nc1cccc2c(=O)n([C@H](C)C(N)=O)ccc12)C1CCCCCC1 (stereo partly shown) [Compound 600] |
| 324 | 0 to 25 | > 76 | 60.1 | CC12CC3CC(C)(C1)CC(CC(=O)Nc1cccc4c(=O)n(CC5CCNCC5)ccc14)(C3)C2 [Compound 518, 2-(3,5-Dimethyl-adamantan-1-yl)-N-(1-oxo-2-piperidin-4-ylmethyl-1,2-dihydro-isoquinolin-5-yl)-acetamide] |
| 45.6 | 26 to 50 | > 76 | 41.3 | C[C@H](C(N)=O)n1ccc2c(NC(=O)CC3(O)CCCCCC3)cccc2c1=O [Compound 555] |
| 49.8 | 0 to 25 | > 76 | 0.779 | O=C(CC12CC3CC(CC(C3)C1)C2)Nc1cccc2c1CCN(C(CO)CO)C2=O [Compound 508] |
| 34.8 | 0 to 25 | > 76 | 0.198 | O=C(CC12CC3CC(CC(C3)C1)C2)Nc1cccc2c(=O)n(C(CO)CO)ccc12 [Compound 507] |
| 16.2 | 0 to 25 | > 76 | 0.365 | C[C@H](C(N)=O)n1ccc2c(NC(=O)CC34CC5CC(CC(C5)C3)C4)cccc2c1=O [Compound 559] |
| 72.6 | 26 to 50 | 51 to 75 | 165 | O=C(CC1(O)CCCCCC1)Nc1cccc2c(=O)n(CCO)ccc12 [Compound 520] |
| 34.8 | 0 to 25 | 26 to 50 | 4.37 | CC(C(N)=O)n1ccc2c(NC(=O)CC34CC5CC(CC(C5)C3)C4)cccc2c1=O (stereo not shown) [Compound 530] |
| 23.4 | 0 to 25 | > 76 | 4.59 | C[C@H](CO)n1ccc2c(NC(=O)CC3CCCCCC3)cccc2c1=O [Compound 606, 2-Cycloheptyl-N-[2-((R)-2-hydroxy-1-methyl-ethyl)-1-oxo-1,2-dihydro-isoquinolin-5-yl]-acetamide] |
| 22.8 | 0 to 25 | > 76 | 6.17 | O=C(CC12CC3CC(CC(C3)C1)C2)Nc1cccc2c(=O)n(CC3CCNCC3)ccc12 [Compound 501] |
| 42 | 0 to 25 | > 76 | 1.09 | NC(=O)[C@@H](CO)n1ccc2c(NC(=O)CC34CC5CC(CC(C5)C3)C4)cccc2c1=O [Compound 599, (R)-2-[5-(2-Adamantan-1-yl-acetylamino)-1-oxo-1H-isoquinolin-2-yl]-3-hydroxy-propionamide] |
| 45.6 | 0 to 25 | – | 0.088 | C[C@H](C(N)=O)n1ccc2c(NC(=O)CC34CC5CC(CC(C5)C3)C4)c(Cl)ccc2c1=O [Compound 602, (R)-2-[5-(2-Adamantan-1-yl-acetylamino)-6-chloro-1-oxo-1H-isoquinolin-2-yl]-propionamide] |
| 20.4 | 0 to 25 | > 76 | 27.8 | O=C(CC1CCCCCC1)Nc1cccc2c(=O)n(CCO)ccc12 [Compound 544] |
| 61.2 | 0 to 25 | > 76 | 23.8 | C[C@H](C(N)=O)n1ccc2c(NC(=O)CC3CCCCCC3)cccc2c1=O [Compound 558] |
| 22.2 | 0 to 25 | > 76 | 9.08 | C[C@H](C(=O)O)n1ccc2c(NC(=O)CC34CC5CC(CC(C5)C3)C4)cccc2c1=O [Compound 601] |
| 40.8 | 26 to 50 | – | 1.21 | C[C@@H](C(N)=O)n1ccc2c(NC(=O)CC34CC5CC(CC(C5)C3)C4)cccc2c1=O [Compound 572, (S)-2-[5-(2-Adamantan-1-yl-acetylamino)-1-oxo-1H-isoquinolin-2-yl]-propionamide] |

Reference: patent US20100184802A1, “Bicycloheteroaryl Compounds as P2X7 Modulators and Uses Thereof” (priority 2006, published 2010)
